Here are results for two compounds from ChEMBL document CHEMBL1149341, “Two novel immunosuppressive pregnane glycosides from the roots of Stephanotis mucronata” (Bioorg Med Chem Lett, 2006).

The test system of test [1] is Splenocyte. Nature of the test: Inhibition of concanavalin A-stimulated mouse splenocyte proliferation by MTT method. It is filed as functional, cell-based. A general note: Formazan colour is commonly taken as a measure of viable cells.
Test [2] concerns Splenocyte. Nature of the test: Inhibition of LPS-stimulated mouse splenocyte proliferation by MTT method. The test is classed as functional, cell-based.

On to `CO[C@H]1[C@@H](O)[C@H](O[C@H]2[C@@H](OC)C[C@H](O[C@H]3[C@@H](OC)C[C@H](O[C@H]4CC[C@@]5(C)C(=CC[C@]6(O)C5C[C@@H](OC(=O)c5cccnc5)[C@@]5(C)[C@]6(O)CC[C@@]5(O)[C@@H](C)OC(=O)/C=C/c5ccccc5)C4)O[C@@H]3C)O[C@@H]2C)O[C@H](C)[C@H]1O[C@@H]1O[C@H](CO)[C@@H](O)[C@H](O)[C@H]1O` (some centres undefined), for which the Activity entry in the test with Splenocyte [1] and in the test on Splenocyte [2] was “Dose-dependent effect” in each case.
For the compound `CNc1ccccc1C(=O)O[C@H](C)[C@]1(O)CC[C@@]2(O)[C@]1(C)[C@H](OC(C)=O)C[C@@H]1[C@@]3(C)CC[C@H](O[C@H]4C[C@H](OC)[C@H](OC5C[C@H](OC)[C@H](O[C@@H]6O[C@H](C)[C@@H](O[C@@H]7O[C@H](CO)[C@@H](O)[C@H](O)[C@H]7O)[C@@H](OC)[C@H]6O)[C@@H](C)O5)[C@@H](C)O4)C[C@@H]3CC[C@]12O` (some centres undefined), the Activity entry in the test on Splenocyte [1] and with Splenocyte [2] was “Dose-dependent effect” each time.
